Measurements taken from article PMC3740683, “ML212: A small-molecule probe for investigating fluconazole resistance mechanisms in Candida albicans” (Beilstein Journal of Organic Chemistry, 2013).
Values after ≈ are worked out from the molar mass of the structure shown. Where two headings read alike, the source gives them in different places.

Assays:
Solubility in PBS = format: physicochemical; conditions: aqueous buffer
C. albicans CaCi-2 = assay: Primary screen and dose-response retest: CaCi-2 with 8 µg/mL fluconazole (Alamar Blue growth); format: cell-based, Candida albicans; conditions: for IC50: Candida albicans, CACI2
Procedure: All of the compounds prepared above were evaluated for their ability to chemosensitize the C. albicans test strains CaCi-2 and CaCi-8 towards fluconazole. […] The DMSO/fluconazole combination served as an internal control.
Protocols for cellular assays
Primary screen and dose-response retest: CaCi-2 with 8 µg/mL fluconazole […]
Clear, flat-bottom, black, 384-well plates (Corning Catalog no. 3712BC; Lot no. […]
DMSO; Fluconazole (Sequoia Research Products Ltd) 2 mg/mL stock solution in PBS; […]
(AG Scientific Catalog no. DAL 1100; Lot no.151016SA); PBS without calcium and magnesium (Cellgro Catalog no. 21-040-CV)
(§1) Synthetic defined growth medium
(§2) RPMI 1640 medium, (powder without sodium bicarbonate; Invitrogen Catalog no. […]
no. 028KO760); Glucose 40% (w/v) in water (Sigma Catalog no. G-5400); MOPS buffer […]
1) Prepare 1× RPMI medium by dissolving 10.4 grams powdered medium in 800 […]
(§3) 2) Add 34.52 g MOPS. While stirring, adjust pH to 7.0 with 10 N NaOH.
(§4) 3) Add 10 mL uridine solution, 50 mL glucose solution, adjust final volume to 1000 […]
Test Strain: C. albicans CaCi-2
1) Inoculate 500 µL of strain from cryopreserved stock into a 250 mL shaker flask containing 30 mL growth medium. Shake at 30 °C overnight.
2) Read OD 600 of 1 mL fungal culture in a cuvette using a standard optical density reader (Eppendorf BioPhotometer Plus), with growth medium as a background […]
3) Dilute to desired volume of fungal inoculums according to the following formula:
(1/OD measured) × (desired final volume of inoculum) × 0.3 = volume of fungal culture (µL) to add to desired volume of growth medium. When added to media in wells, this yields a calculated starting OD of the fungal inoculum of 0.00015.
1) Add fluconazole stock solution to fungal inoculum to achieve a final concentration […]
2) Add Pen/Strep at 0.1 mL per 10 mL media (1% v/v).
3) Use a Thermo Combi nL to dispense 20 µL/well of assay media into all wells.
4) Pin 25 nL test compound from compound plates into assay plates using CyBi- […]
5) Dispense 20 µL/well of culture into the assay media in all wells.
6) Incubate plates in a humidified (90% humidity) Liconic incubator at 37 °C without […]
7) Dilute Alamar Blue Reagent 1:40 in Ca/Mg-free PBS.
8) To all plates, add 5 µL/well of the diluted Alamar to a final dilution factor of 1:200.
9) Incubate the plates for an additional 2 hours.
10) Read the relative fluorescence intensity (RFU) of wells on a standard plate reader as a measure of relative fungal growth. EnVision (Perkin Elmer) plate reader setup: Ex 544 nm, Em 590 nm, bandwidth 12 nm, top read. […]

[1] = Secondary assay 3: fibroblast toxicity; format: cell-based; conditions: mouse, NIH-3T3 fibroblasts, murine 3T3 fibroblasts
Procedure: 11) Read relative fluorescence intensity (RFU) of wells on a standard plate reader as […]
measure of relative fungal growth. EnVision (Perkin Elmer) plate reader settings: […]
Secondary assay 3: fibroblast toxicity
Clear, flat-bottom, black, 384-well plates (Corning Catalog no. 3712BC Lot no.
35808016); geldanamycin (AG Scientific Catalog no. G-1047) 15 mM stock solution in […]
DMSO; fluconazole (Sequoia Research Ltd.) 2 mg/mL stock solution in PBS; Alamar […]
Blue (AG Scientific Catalog no. DAL1100, Lot no. 151016SA); PBS w/o calcium and […]
magnesium (Cellgro Catalog no. 21-040-CV)
Optimem medium (Invitrogen Catalog no. 31985-070; Lot no. 548536); 2.5% (v/v) fetal […]
bovine serum (Hyclone Catalog no.30071.03; Lot no. ARF26748); 1% (v/v) Pen/Strep […]
Test strain: NIH-3T3 mammalian fibroblasts (ATCC CRL No. 1658) […]
1) Plate cells in 384-well plates at 6,000 cells/well in 20 µL assay medium.
2) Incubate plates overnight at 37 °C under 5% CO2.
1) After overnight culture, pin compounds into wells at 100 nL/well using the CyBio […]
CyBi-Well pinning instrument.
2) After pinning compounds, add 20 µL of assay medium supplemented with […]
fluconazole to each well. […]
6) Read the relative fluorescence intensity (RFU) of wells on a standard plate reader as a measure of relative cell growth. EnVision (Perkin Elmer) plate reader […]
setup: Ex 544 nm, Em […], bandwidth12 nm, top read.

C. albicans CaCi-8 = assay: Secondary assay 1: CaCi-8 with 8 µg/mL fluconazole (Alamar Blue growth); format: cell-based, Candida albicans; conditions: for IC50: Candida albicans; for CaCi-8 IC50: 37 °C, 48 hours, with test compound and 8 µg/mL (26 µM) fluconazole, average of at least three independent experiments in duplicate, inactive = negligible activity at concentrations below 26 µM
Procedure: All of the compounds prepared above were evaluated for their ability to chemosensitize the C. albicans test strains CaCi-2 and CaCi-8 towards fluconazole. […] The DMSO/fluconazole combination served as an internal control. […]
(1/OD measured) × (desired final volume of inoculum) × 0.3 = volume of fungal culture (µL) to add to desired volume of growth medium. When added to media in wells, this yields a calculated starting OD of the fungal inoculum of 0.00015. […]
3) Use a Thermo Combi nL to dispense 20 µL/well of assay media into all wells. […]
EnVision (Perkin Elmer) plate reader setup: Ex 544 nm, Em 590 nm, bandwidth 12 nm, top read.
Secondary assay 1: CaCi-8 with 8 µg/mL fluconazole […]
35808016); geldanamycin (AG Scientific Catalog no. […]
PBS w/o calcium and magnesium (Cellgro Catalog no. 21-040-CV)
as §1, §2
no. 028K0760); glucose 40% (w/v) in water (Sigma Catalog no. G-5400); MOPS buffer […]
1) Prepare 1× RPMI medium by dissolving 10.4 g powdered medium in 800 mL […]
as §3, §4
Test strain: C. albicans CaCi-8
1) Inoculate 500 µL of strain from cryopreserved stock into a 250 mL shaker flask containing 30 mL growth medium. Shake at 30 °C overnight (16 hours).
2) Read OD 600 of 1 mL of fungal culture in a cuvette using a standard optical density reader (Eppendorf BioPhotometer Plus), with growth medium as a […]
3) Dilute to a desired volume of fungal inoculum according to following formula: […]
1) Add fluconazole stock solution to fungal inoculum to achieve 8 µg/mL.
2) Add Pen/Strep to media to 1% concentration.
4) Dispense geldanamycin in positive control wells using Thermo Combi nL for a final concentration of 3 µM.
5) Then, pin 100 nL of test compound from compound plates into assay plates using a CyBi-Well pin tool.
6) Dispense 20 µL/well of culture into the assay media in all wells.
7) Incubate the plates in a humidified (90% humidity) Liconic incubator at 37 °C without agitation for 48 hours.
8) Dilute Alamar Blue 1:40 in Ca/Mg-free PBS.
9) To all plates, add 5 µL/well of the diluted Alamar Blue to plates to a final dilution […]
10) Incubate the plates for 2 hours. […]

[2] = 37 °C, 48 hours, with test compound and 8 µg/mL (26 µM) fluconazole, average of at least three independent experiments in duplicate, inactive = negligible activity at concentrations below 26 µM
[3] = CACI8, 48 h, read-out: CaCi-8 IC50

For `COC(=O)Cn1nc(-c2ccccc2)c2ccccc21` [Compound 1], the solubility (Solubility in PBS) was 79 µM (≈ 21 µg/mL), the IC50 (C. albicans CaCi-2; [2]) was 2.2 ± 1 µM and the IC50 (C. albicans CaCi-2; commercial sample, hit revalidation, with 8 µg/mL fluconazole) was 0.8 µM. It also gave an IC50 at 48 h [1] of over 26 µM, an IC50 (C. albicans CaCi-8; [3]) of 3.5 ± 1.9 µM and an IC50 (C. albicans CaCi-8; CACI8, read-out: CaCi-8 IC50) of 2.3 µM.
`COC(=O)Cn1nc(-c2ccccc2)c2cc(C)ccc21` [Compound 11] showed an IC50 (C. albicans CaCi-2; [2]) of 5.2 ± 2.2 µM and an IC50 (C. albicans CaCi-8; [3]) of 8.2 ± 3.2 µM.
In the case of `COC(=O)Cn1nc(-c2ccccc2)c2cc(OC)ccc21` [Compound 12], the IC50 (C. albicans CaCi-2; [2]) is reported as 14.9 ± 5.7 µM and the IC50 (C. albicans CaCi-8; [3]) is reported as 22.1 ± 6.2 µM.
With `COC(=O)Cn1nc(-c2ccccc2)c2cc(F)ccc21` [Compound 13] the IC50 (C. albicans CaCi-2; [2]) was 11.2 ± 7.2 µM and the “CaCi-8 IC50” value (C. albicans CaCi-8) was “inactive”.
For `COC(=O)Cn1nc(-c2ccccc2)c2cc(Cl)ccc21` [Compound 14], the “CaCi-2 IC50” value (C. albicans CaCi-2; [2]) was “inactive” and the “CaCi-8 IC50” value (C. albicans CaCi-8) was “inactive”.
With `COC(=O)Cn1nc(-c2ccccc2)c2ccc(C)cc21` [Compound 15] the IC50 (C. albicans CaCi-2; [2]) was 5.9 ± 3.1 µM and the “CaCi-8 IC50” value (C. albicans CaCi-8) was “inactive”.
`COC(=O)Cn1nc(-c2ccccc2)c2ccc(OC)cc21` [Compound 16] showed an IC50 (C. albicans CaCi-2; [2]) of 9.5 ± 2.5 µM and an IC50 (C. albicans CaCi-8; [3]) of 12.4 ± 0.5 µM.
`COC(=O)Cn1nc(-c2ccccc2)c2ccc(Cl)cc21` [Compound 17] showed an IC50 (C. albicans CaCi-2; [2]) of 4 ± 1.3 µM and an IC50 (C. albicans CaCi-8; [3]) of 8.4 ± 0.5 µM.
With `COC(=O)Cn1nc(-c2ccccc2)c2ccc(C(F)(F)F)cc21` [Compound 18] the “CaCi-2 IC50” value (C. albicans CaCi-2; [2]) was “inactive” and the “CaCi-8 IC50” value (C. albicans CaCi-8) was “inactive”.
In the case of `COC(=O)Cn1nc(-c2ccccc2)c2cccc(C(F)(F)F)c21` [Compound 19], the “CaCi-2 IC50” value (C. albicans CaCi-2; [2]) is reported as “inactive” and the “CaCi-8 IC50” value (C. albicans CaCi-8) is reported as “inactive”.
For `COC(=O)Cn1nc(-c2ccccc2)c2cccnc21` [Compound 20], the “CaCi-2 IC50” value (C. albicans CaCi-2; [2]) was “inactive” and the “CaCi-8 IC50” value (C. albicans CaCi-8) was “inactive”.
With `COC(=O)Cn1ncc2ccccc21` [Compound 21] the “CaCi-2 IC50” value (C. albicans CaCi-2; [2]) was “inactive” and the “CaCi-8 IC50” value (C. albicans CaCi-8) was “inactive”.
In the case of `CCc1nn(CC(=O)OC)c2ccccc12` [Compound 22], the “CaCi-2 IC50” value (C. albicans CaCi-2; [2]) is reported as “inactive” and the “CaCi-8 IC50” value (C. albicans CaCi-8) is reported as “inactive”.
With `COC(=O)Cn1nc(C(C)(C)C)c2ccccc21` [Compound 23] the “CaCi-2 IC50” value (C. albicans CaCi-2; [2]) was “inactive” and the “CaCi-8 IC50” value (C. albicans CaCi-8) was “inactive”.
For `COC(=O)Cn1nc(C2CC2)c2ccccc21` [Compound 24], the “CaCi-2 IC50” value (C. albicans CaCi-2; [2]) was “inactive” and the “CaCi-8 IC50” value (C. albicans CaCi-8) was “inactive”.
With `COC(=O)Cn1nc(C2CCCCC2)c2ccccc21` [Compound 25] the IC50 (C. albicans CaCi-2; [2]) was 2.3 ± 0.3 µM and the IC50 (C. albicans CaCi-8; [3]) was 6 ± 1.7 µM.
